Among the data in ChEMBL document CHEMBL1154669, “5-Aryl indanones and derivatives as non-steroidal progesterone receptor modulators” (Bioorg Med Chem Lett, 2009) are IC50 and EC50 values, retold here.

The target of test [1] is T1, Progesterone receptor (Homo sapiens, UniProt P06401).
T1 sequence (P06401 whole entry): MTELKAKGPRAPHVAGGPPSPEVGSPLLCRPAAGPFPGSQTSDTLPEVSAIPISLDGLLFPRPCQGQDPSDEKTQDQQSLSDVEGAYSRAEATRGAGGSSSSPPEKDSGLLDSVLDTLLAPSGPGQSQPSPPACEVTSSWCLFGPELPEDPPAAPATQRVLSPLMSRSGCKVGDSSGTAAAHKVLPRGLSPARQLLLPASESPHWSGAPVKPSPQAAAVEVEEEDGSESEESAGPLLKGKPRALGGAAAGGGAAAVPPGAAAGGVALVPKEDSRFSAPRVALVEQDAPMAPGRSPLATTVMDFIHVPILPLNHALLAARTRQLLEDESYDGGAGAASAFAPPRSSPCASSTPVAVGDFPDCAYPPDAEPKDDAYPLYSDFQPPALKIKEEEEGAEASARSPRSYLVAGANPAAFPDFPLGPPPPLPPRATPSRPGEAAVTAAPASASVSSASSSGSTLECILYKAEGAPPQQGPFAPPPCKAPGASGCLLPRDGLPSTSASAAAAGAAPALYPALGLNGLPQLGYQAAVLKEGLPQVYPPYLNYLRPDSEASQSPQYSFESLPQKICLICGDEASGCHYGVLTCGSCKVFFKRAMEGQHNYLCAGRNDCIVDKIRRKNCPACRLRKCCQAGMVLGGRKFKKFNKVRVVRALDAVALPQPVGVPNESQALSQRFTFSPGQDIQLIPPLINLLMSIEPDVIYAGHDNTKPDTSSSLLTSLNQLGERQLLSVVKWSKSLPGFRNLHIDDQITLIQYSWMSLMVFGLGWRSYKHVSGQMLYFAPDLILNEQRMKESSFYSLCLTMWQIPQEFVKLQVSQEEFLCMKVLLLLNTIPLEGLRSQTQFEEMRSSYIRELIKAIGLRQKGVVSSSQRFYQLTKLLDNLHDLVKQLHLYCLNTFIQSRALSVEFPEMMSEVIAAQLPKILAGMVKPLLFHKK
Kind of test: Inhibition of progesterone receptor in human T47D cells assessed as progesteron-induced alkaline phosphatase activity. It counts as cell-based.

The target of test [2] is T1, Progesterone receptor. The test is described as follows: Agonist activity at progesterone receptor in human T47D cells assessed as alkaline phosphatase activity. The format is functional, cell-based.

As for `Cc1cccc(-c2ccc3c(c2)C(C)(C)C/C3=N\O)c1`, at Progesterone receptor [1], the IC50 (as a rule, the point on the concentration scale where inhibition reaches its midpoint) was 316 nM.
`CC1(C)C/C(=N\O)c2ccc(-c3cccc(C#N)c3)cc21`: on Progesterone receptor [1], the IC50 was 317 nM.
Regarding `CC1C/C(=N/O)c2ccc(-c3ccc(C#N)n3C)cc21` (configuration not stated), on Progesterone receptor [1], the IC50 amounted to 65 nM. Besides, the 50% effective concentration (EC50) (usually the concentration at which the effect is half-maximal) at Progesterone receptor [2] is over 3000 nM.
Taken in the same sequence, the figures for `Cn1c(C#N)ccc1-c1ccc2c(c1)CCC2=O` were 34 nM and over 3000 nM.
Taken in the same sequence, the figures for `C#CCC1(O)CC(C)(C)c2cc(-c3ccc(C#N)n3C)ccc21` (configuration not stated) were 3 nM and over 3000 nM.
Taken in the same sequence, the figures for `Cn1c(C#N)ccc1-c1ccc2c(c1)CC/C2=N/O` were 132 nM and over 3000 nM.
For `CC1CC(O)c2ccc(-c3ccc(C#N)n3C)cc21` (configuration not stated), the IC50 at Progesterone receptor [1] came to 18 nM. In addition, the EC50 on Progesterone receptor [2] is over 3000 nM.
Take `Cn1c(C#N)ccc1-c1ccc2c(c1)C(C)(C)CC2(C)O` (configuration not stated): the EC50 on Progesterone receptor [2] amounted to 1 nM.
With `Cn1c(C#N)ccc1-c1ccc2c(c1)C(C)(C)CC2O` (configuration not stated), the EC50 on Progesterone receptor [2] was 19 nM.
For the compound `CC1(C)CC(=O)c2ccc(-c3cccc(C#N)c3)cc21`, the 50% inhibitory concentration (IC50) on Progesterone receptor [1] was 195 nM.
Take `CC1(C)C/C(=N\O)c2ccc(-c3cccc(Cl)c3)cc21`: the IC50 on Progesterone receptor [1] was determined as 490 nM.
As to `CC1(C)CC(=O)c2ccc(-c3ccc(Cl)c(Cl)c3)cc21`, the IC50 at Progesterone receptor [1] was determined as 79 nM.
On to `Cn1c(C#N)ccc1-c1ccc2c(c1)CCC2O` (configuration not stated), for which the 50% inhibitory concentration (IC50) on Progesterone receptor [1] amounted to 10 nM. Moreover, on Progesterone receptor [2], the concentration giving a half-maximal response (EC50) is over 3000 nM.
Taken in the same sequence, the figures for `Cn1c(C#N)ccc1-c1ccc2c(c1)C(C)(C)C/C2=N/O` were 14 nM and over 3000 nM.
On to `CCC1(O)CC(C)(C)c2cc(-c3ccc(C#N)n3C)ccc21` (configuration not stated), for which the EC50 at Progesterone receptor [2] was 2 nM.
